Experimental data taken from PubChem BioAssay AID2060492 (Molecular Pharmacology Branch, DTP, NCI, 2025).
Several values for one entry are separate records, joined by “and”; a condition that tells them apart may be missing. Equal entries are not always repeated.

Test system: 695427-040-R-J1-PDC complex spheroids, viability percent T/C
Assay: Anticancer human tumor 695427-040-R-J1-PDC patient-derived colon adenocarcinoma cell line growth inhibition [GQUAD]
Settings: for viability, T/C: stronger effect = lower value
Description: DNA G-quadruplex Stabilizer Agents in Combinations in Complex Spheroids
A high-throughput screen of multi-cell type tumor spheroids was designed to identify active combinations of DNA G-quadruplex stabilizer agents and targeted small molecules. Complex spheroids include a stromal component modeled by human endothelial cells (HUVEC) and fibroblasts modeled by human mesenchymal stem cells (MSCs). The concentration ranges selected for each drug and investigational agent were based upon clinically achievable concentrations if the clinical Cmax of the agent was known.
Compounds. The drugs and investigational agents: pidnarulex (CX-5461; NSC782164), APTO-253 (NSC789042), BRACO-19 (NSC847499), peposertib (NSC802822), ceralasertib (NSC780249), elimusertib (NSC800525), camonsertib (NSC841442), AZD-1390 (NSC803789), olaparib (NSC753686), talazoparib (NSC767125), ART-558 (NSC835418), sotorasib (NSC818433), MRTX-1133 (NSC836407), SN-38 (NSC673596), topotecan (NSC609699), etoposide (NSC141540), doxorubicin (NSC123127), gemcitabine (NSC613327), 5-fluorouracil (NSC19893), paclitaxel (NSC125973), vemurafenib (NSC761431), panobinostat (NSC761190), R-306465 (JNJ-16241199; NSC773264), adavosertib (NSC754352), TP-3654 (NSC805149), carboplatin (NSC241240), KSQ-4279 (NSC840948), and staurosporine (NSC755774) were obtained from the National Cancer Institute (NCI) Developmental Therapeutics Program Chemical Repository (34). The FDA-approved anticancer drug set is available from the NCI Developmental Therapeutics Program. […] The stock solutions were prepared in dimethyl sulfoxide (DMSO, Sigma-Aldrich, St. Louis, MO, cat. D2650) at 800-fold the tested concentration and stored at -70 degrees C prior to their use. All drugs and investigational agents were tested over a range starting from a high concentration at or near the clinical Cmax and decreasing in half-log increments. If the clinical Cmax for an agent had not been determined, the highest concentration tested was 10 microM.
2.3 Cell Culture. All cells were maintained in an incubator at 37 degrees C and 5% CO2 with 95% humidity. The PDC lines were cultured according to standard operating procedures established by the NCI PDMR. All PDCs were thawed and cultured in Matrigel-coated flasks prepared with a working solution of 1X Ham's F-12 nutrient mix, without supplementation (Invitrogen, cat. 11765054), 100 U/mL penicillin-streptomycin (Invitrogen, cat. 15140122), and 2.5% Matrigel (Corning Inc., cat. 354248) for the first three passages. The 857933-349-R-J2-PDC line was cultured in 6C/Colon 1B media, which includes advanced DMEM/F-12 (Thermo Fisher Scientific, cat. 12634028), 10 mM HEPES (Thermo Fisher Scientific, cat. 15630080), 1X GlutaMAX supplement (Thermo Fisher Scientific, cat. 35050061), 0.1 mg/mL primocin (InvivoGen, cat. ant-pm-2), 10% defined fetal bovine serum, heat inactivated (HyClone Laboratories Inc., cat. SH30070.03HI), 50% L-WRN conditioned media (ATCC, cat. CRL-3276), 1.25 mM N-Acetyl-L-cysteine (Sigma-Aldrich, cat. A9165), 10 mM nicotinamide (Sigma-Aldrich, cat. N0636), 1X B-27 supplement (Thermo Fisher Scientific, cat. 17504044), 1X N-2 supplement (Thermo Fisher Scientific, cat. 17502048), 10 microM Y-27632 dihydrochloride (Tocris Bioscience, cat. 1254), and 50 ng/mL human EGF recombinant protein (Thermo Fisher Scientific, cat. PHG0311). The 485176-168-R4-J1-PDC line was cultured in Panc media, which includes all 6C/Colon 1B media components plus 100 ng/mL human FGF-10 (Thermo Fisher Scientific, cat. 100-26), 500 nM SB-431542 (Selleckchem, cat. S1067), and gastrin (Tocris, cat. 3006).
[…]

[1] = curve of first compound, second compound 0.0316 µM
[2] = curve of first compound, second compound 0.1 µM
[3] = curve of first compound, second compound 0.316 µM
[4] = curve of first compound, second compound 1 µM
[5] = curve of first compound, second compound 3.16 µM
[6] = curve of first compound, second compound 10 µM
[7] = second compound 0.0316 µM, first compound 0.0316 µM
[8] = second compound 0.0316 µM, first compound 0.1 µM
[9] = second compound 0.0316 µM, first compound 0.316 µM
[10] = second compound 0.0316 µM, first compound 1 µM
[11] = second compound 0.0316 µM, first compound 3.16 µM
[12] = second compound 0.0316 µM, first compound 10 µM
[13] = second compound 0.1 µM, first compound 0.0316 µM
[14] = second compound 0.1 µM, first compound 0.1 µM
[15] = second compound 0.1 µM, first compound 0.316 µM
[16] = second compound 0.1 µM, first compound 1 µM
[17] = second compound 0.1 µM, first compound 3.16 µM
[18] = second compound 0.1 µM, first compound 10 µM
[19] = second compound 0.316 µM, first compound 0.0316 µM
[20] = second compound 0.316 µM, first compound 0.1 µM
[21] = second compound 0.316 µM, first compound 0.316 µM
[22] = second compound 0.316 µM, first compound 1 µM
[23] = second compound 0.316 µM, first compound 3.16 µM
[24] = second compound 0.316 µM, first compound 10 µM
[25] = second compound 1 µM, first compound 0.0316 µM
[26] = second compound 1 µM, first compound 0.1 µM
[27] = second compound 1 µM, first compound 0.316 µM
[28] = second compound 1 µM, first compound 1 µM
[29] = second compound 1 µM, first compound 3.16 µM
[30] = second compound 1 µM, first compound 10 µM
[31] = second compound 3.16 µM, first compound 0.0316 µM
[32] = second compound 3.16 µM, first compound 0.1 µM
[33] = second compound 3.16 µM, first compound 0.316 µM
[34] = second compound 3.16 µM, first compound 1 µM
[35] = second compound 3.16 µM, first compound 3.16 µM
[36] = second compound 3.16 µM, first compound 10 µM
[37] = second compound 10 µM, first compound 0.0316 µM
[38] = second compound 10 µM, first compound 0.1 µM
[39] = second compound 10 µM, first compound 0.316 µM
[40] = second compound 10 µM, first compound 1 µM
[41] = second compound 10 µM, first compound 3.16 µM
[42] = second compound 10 µM, first compound 10 µM
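Note: spheroids exposed to compounds for seven days before readout.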

CC1COCCN1c1cc(C2(S(C)(=N)=O)CC2)nc(-c2ccnc3[nH]ccc23)n1 (stereo unspecified) + Cc1cnc(CNC(=O)c2c(=O)c3ccc(N4CCCN(C)CC4)nc3n3c2sc2ccccc23)cn1 showed an IC50 [1] of over 10000 nM, an IC50 [2] of over 10000 nM and an IC50 [3] of over 10000 nM. For the same compound, the IC50 [4] was over 10000 nM, the IC50 [5] was under 31.6 nM and the IC50 [6] was under 31.6 nM. The viability, T/C [7] was 95.6%, the viability, T/C [8] was 93.5% and the viability, T/C [9] was 95.3%. It also gave a viability, T/C [10] of 94.2%, a viability, T/C [11] of 74.8% and a viability, T/C [12] of 66.2%. The viability, T/C [13] was 85.2%, the viability, T/C [14] was 79.1% and the viability, T/C [15] was 89.3%. For the same compound, the viability, T/C [16] was 64.4%, the viability, T/C [17] was 74.2% and the viability, T/C [18] was 55.4%. The viability, T/C [19] was 76.8%, the viability, T/C [20] was 71.5% and the viability, T/C [21] was 77.5%. The viability, T/C [22] was 66.1%, the viability, T/C [23] was 77.9% and the viability, T/C [24] was 50.4%. For the same compound, the viability, T/C [25] was 51.8%, the viability, T/C [26] was 66.6% and the viability, T/C [27] was 59.7%. For the same compound, the viability, T/C [28] was 66.7%, the viability, T/C [29] was 62.7% and the viability, T/C [30] was 47.3%. The viability, T/C [31] was 33.4%, the viability, T/C [32] was 58.1% and the viability, T/C [33] was 53.2%. For the same compound, the viability, T/C [34] was 49.4%, the viability, T/C [35] was 51.5% and the viability, T/C [36] was 36.9%. The viability, T/C [37] was 33.8%, the viability, T/C [38] was 36.5% and the viability, T/C [39] was 41.7%. For the same compound, the viability, T/C [40] was 39.1%, the viability, T/C [41] was 44% and the viability, T/C [42] was 25.5%.
With CC1COCCN1c1cc(C2(S(C)(=N)=O)CC2)nc(-c2ccnc3[nH]ccc23)n1 (stereo unspecified) the viability, T/C (compound 0.0316 µM) was 98.2% and 95.8% and 104%, the viability, T/C (compound 0.1 µM) was 80.6% and 102% and 90.9% and the viability, T/C (compound 0.316 µM) was 82% and 94.1% and 92.3%. For the same compound, the viability, T/C (compound 1 µM) was 85.7% and 94.6% and 87.3%, the viability, T/C (compound 3.16 µM) was 59.1% and 88.3% and 68.5% and the viability, T/C (compound 10 µM) was 55.5% and 73.5% and 54.2%. The IC50 (curve of compound) was over 10000 nM.
Compound O=C(NO)c1cnc(N2CCN(S(=O)(=O)c3ccc4ccccc4c3)CC2)nc1 + CN(C)c1ccc(Nc2c3ccc(NC(=O)CCN4CCCC4)cc3nc3cc(NC(=O)CCN4CCCC4)ccc23)cc1 has an IC50 [1] of 429 nM, an IC50 [2] of 461 nM and an IC50 [3] of 431 nM. For the same compound, the IC50 [4] was 401 nM, the IC50 [5] was 447 nM and the IC50 [6] was 366 nM. For the same compound, the viability, T/C [7] was 98.9%, the viability, T/C [8] was 93.1% and the viability, T/C [9] was 66.5%. It also gave a viability, T/C [10] of 4.08%, a viability, T/C [11] of 0.2% and a viability, T/C [12] of 0.24%. It also gave a viability, T/C [13] of 107%, a viability, T/C [14] of 91.7% and a viability, T/C [15] of 72.4%. The viability, T/C [16] was 3.81%, the viability, T/C [17] was 0.24% and the viability, T/C [18] was 0.42%. The viability, T/C [19] was 100%, the viability, T/C [20] was 101% and the viability, T/C [21] was 67.1%. For the same compound, the viability, T/C [22] was 3.52%, the viability, T/C [23] was 0.21% and the viability, T/C [24] was 0.44%. The viability, T/C [25] was 97.1%, the viability, T/C [26] was 87.9% and the viability, T/C [27] was 62.3%. For the same compound, the viability, T/C [28] was 3.42%, the viability, T/C [29] was 0.2% and the viability, T/C [30] was 0.29%. It also gave a viability, T/C [31] of 90.7%, a viability, T/C [32] of 89.5% and a viability, T/C [33] of 70%. The viability, T/C [34] was 3.74%, the viability, T/C [35] was 0.28% and the viability, T/C [36] was 0.31%. For the same compound, the viability, T/C [37] was 84%, the viability, T/C [38] was 84.4% and the viability, T/C [39] was 56.8%. It also gave a viability, T/C [40] of 3.35%, a viability, T/C [41] of 0.35% and a viability, T/C [42] of 0.32%.
